Measurements published in article PMC3359661, “FK228 Analogues Induce Fetal Hemoglobin in Human Erythroid Progenitors” (Anemia, 2012).
Several values for one entry are separate records, joined by “and”; a condition that tells them apart may be missing. Identical values can stand only once.

How the values were obtained:
[1] = tested on: HbF levels in primary erythroid cells; test: HbF ELISA in primary erythroid cells; assay type: cell-based, human
Method: (§1) The two-phase liquid culture system was established as previously published by Fibach et al. using buffy coat mononuclear cells, purchased from Carter Blood Care (Fort Worth, TX) in accordance with the guidelines of the Institutional Review Board at the University of Texas at Dallas. During phase 1, cells were grown in IMDM medium with 30% fetal bovine serum and 50 ng/mL each of the granulocyte-monocyte colony-stimulating factor, Interleukin-3, and stem cell factor. Subsequently, phase 2 was initiated on day 7 with the addition of erythropoietin (2 U/mL) and stem cell factor (50 ng/mL). The cells were treated on Day 11 with the different test compounds and harvested on Day 14 (72 hr incubation).
Total hemoglobin was quantified using 20 μL of protein extract from one million KU812 cells mixed with 5 mL of Drabkin's reagent (Sigma); then cyanmethemoglobin was measured at the 540 nm wavelength. HbF levels were quantified using the human Hemoglobin F ELISA Quantitation Kit (Bethyl Laboratory, Montgomery, TX). Briefly, 96-well plates were coated with sheep anti-human HbF antibody (1 mg/mL). After blocking with 1% bovine serum albumin, horse radish peroxidase-conjugated secondary antibody (1 mg/mL) was added. Raw data were analyzed using GraphPad PRISM (GraphPad Software, Inc., La Jolla, CA) and HbF levels were calculated as a ratio of total hemoglobin corrected for total protein (HbF/total Hb/total protein).

[2] = tested on: HbF-positive primary erythroid progenitors; test: Anti-HbF FITC immunostaining of primary erythroid progenitors; assay type: cell-based, human; conditions: anti-HbF FITC / DAPI, 500 cells counted; 15.5% HbF-positive at baseline in untreated cells
Method: as §1
Primary erythroid progenitor cytospin cell preparations were fixed with 4% paraformaldehyde in phosphate buffered saline for 15 min, washed, and then permeabilized with 0.3% Trition-100 solution for 10 min. Cells were then blocked in a 5% bovine serum albumin solution and immunostaining performed at 4°C overnight with anti-HbF fluorescein isothiocyanate (FITC) conjugated antibody (Bethyl Laboratories Inc., TX). Cell nuclei were stained with mounting medium containing 4′,6-diamidino-2-phenylindole (DAPI; Santa Cruz Biotechnology, CA). Primary cells were photographed with an Olympus BX 51 phase contrast epifluorescent microscope equipped with Hoffman Modulation optics. Phase-contrast images were recorded with a CCD camera (1/100 sec exposure) and fluorescence images were photographed through 485/520 nm emission filter. The percent of HbF positive cells was calculated by dividing the number of FITC positive cells by total cells (DAPI positive).
(§2) Figure 3 JMA33 and JMA26 induce HbF in primary erythroid cells. (a) Day 11 erythroid progenitors were treated for 48 hr with the controls agents and the FK228 analogues shown and then analyzed by RT-qPCR. Untreated cells (UT) were used as a control and normalized to one. Data were calculated as the means ± SEM. […] The images generated were used to count 500 DAPI positive cells and the %FITC positive cells were calculated accordingly.

[3] = tested on: HDAC activity in HeLa cells; test: HDAC Fluorescent Activity Assay (Fluor de Lys) in HeLa cells; assay type: cell-based, human; conditions: 300 nM; HeLa cells, Fluor de Lys substrate; maximal inhibition
Method: (§3) The HDAC Fluorescent Activity Assay (Enzo Life Science, Farmingdale, NY) was used to measure HDAC inhibition in HeLa cells in a 96-well format using Trichostatin A as the positive control per the manufacturer's protocol. This assay is based on the Fluor de Lys (Fluorogenic Histone Deacetylase Lysyl (FDL)) Substrate/Developer. The procedure was as follows: the test compounds FK228, JMA26, and JMA33 were added to HeLa cells along with the FDL substrate to allow intracellular drug activation then fluorescence levels were read on the fluorometer at 440 nm (CytoFluor II, PerSeptive Biosystems, Farmingdale, NY). The drug concentrations tested were based on the amount required for HbF induction in primary cells. Data was reported as the mean ± standard deviation (SD) for at least five replicates.
(§4) To ascertain the mechanism of HbF induction by the lead compounds, we performed an in vivo assay to investigate the ability of JMA26 and JMA33 to act as HDAC inhibitors. The HDAC Fluorescent Activity Assay designed to measure HDAC activity in HeLa cells was completed in a 96-well format. The assay is based on the fact that the Fluor de Lys substrate is deacetylated by HDACs to generate a fluorescent readout. TSA (0.5 to 1000 nM) was used to establish the assay in HeLa cells, showing about 80% HDAC inhibition in our system (Figure 4(a)).
(§5) Figure 4 HDAC inhibition assay. The HDAC Fluorescent Activity Assay was used to measure HDAC inhibition in HeLa cells (See Section 2). Compounds and FDL substrate were added to HeLa cells to allow drug activation in vivo then fluorescence levels were quantified on the fluorometer at 440 nm. (a) Trichostatin A (TSA) was used as the control. (b) Inhibition studies were conducted for FK228 showing maximal HDAC inhibition at the 300 nM concentration. (c) Similar studies were performed for JMA33 and JMA26. The data are reported as the means ± SEM.

HeLa cells = test: as above; assay type: cell-based, human; conditions: 300 nM
Method: as §3, §4, §5

[4] = tested on: γ-globin transcription in primary erythroid progenitors; test: RT-qPCR of γ-globin mRNA in primary erythroid progenitors (two-phase liquid culture); assay type: cell-based, human; conditions: Day 11 erythroid progenitors treated 48 hr (Figure 3 legend), untreated normalized to one
Method: as §1
Total RNA was isolated from samples using RNA Stat-60 (TEL-TEST “B” Inc., Friendswood, TX) and used for RT-qPCR analysis as previously published. […] The globin mRNA levels were calculated as a ratio of GAPDH (γ/GAPDH, β/GAPDH), and the γ/β-globin mRNA ratio was calculated by dividing γ/GAPDH by β/GAPDH.
as §2, with “Untreated cells (UT) were used as a control and normalized to one.” left out

[5] = tested on: γ-promoter activity in GM979 stable line; conditions: μLCRβprRluc AγprFluc GM979 stable line; cited from earlier work
Source text: Many published studies have shown that primary erythroid cells remain the best system to confirm HbF-inducing agents and to serve as a predictor of efficacy in vivo. Human burst forming units—erythroid cells in clonogenic assays or erythroid progenitors grown in liquid culture [39, 41]—have been used to evaluate putative HbF inducers. However, these assays are not easily adaptable to large-scale drug screening, thus immortalized cell lines have been investigated for this purpose.

FK228
Fold change in HbF levels ([1]; relative to untreated = 1, concentrations as in E7): 2.4 fold and 2.454 fold
Fetal hemoglobin quantification, Mean (HbF/total Hb/total protein) ([1]; treated Day 11, harvested Day 14, conc: Cys 10 mM, Hemin 50 μM, SAHA 2000 nM, FK228 1.5 nM, JMA1 1.5 nM, JMA2 1.0 nM, JMA26 500 nM, JMA33 1000 nM, untreated 0.683): 1.676
increase in HbF-positive cells [2]: 3.5 fold
HDAC inhibition [3]: about 85%
cell toxicity (HeLa cells): marked cell toxicity
induction of γ-globin transcription at the mRNA level [4]: ≤ 3.2 fold
concentration inducing γ-promoter activity [5]: 1 nM
